This is an account of results in patent US4110328A, “Bis-carbamylguanidinoazaalkane antimicrobial compounds” (Cooper Laboratories, Inc., priority 1976, dated 1978).

For one series, the system named is Ps. aeruginosa. The experiment in a line: Serial dilution MIC test, Ps. aeruginosa. It is filed as cell-based. The note with it: Pseudomonas aeruginosa; trypticase soy broth, 37° C, 36 hours; read-out: MINIMUM INHIBITORY CONCN. Ps. aeruginosa. As to the method:
(§1) A quantitative serial dilution test may also be performed by the following procedure.
(§2) A 20 mg/ml solution of the compound to be tested is prepared in a standard brain-heart infusion broth medium which has been diluted with water to one-half standard strength.
(§3) Serial dilutions are prepared by adding 1 ml of the solution to a test tube containing 9 ml of medium. Five milliliters of the resulting solution are then added to another test tube containing 5 ml of the medium. The resulting solution is then again diluted by the same procedure. Ordinarily one tenfold dilution and four twofold dilutions are made. The procedure can be continued if more dilute solutions are required. Each of the series of tubes containing solutions of the compounds to be assayed is inoculated with two drops of a heavy culture of the chosen microorganisms in the brain-heart infusion broth. The tubes are incubated at 37° C for 36 hours and the most dilute solution showing no microbial growth is noted. The concentration of this solution is reported as the minimal inhibitory concentration (MIC).
(§4) A number of compounds of this invention were tested for in vitro antimicrobial activity against several pathogenic microorganisms using the above described procedure except that trypticase soy broth was used in place of half strength brain-heart infusion as the medium.

Another series concerns E. coli. Briefly: Serial dilution MIC test, E. coli. The note with it: Escherichia coli, read-out: MINIMUM […]. E. coli; trypticase soy broth, 37° C, 36 hours; read-out: MINIMUM INHIBITORY CONCN. E. coli. The class given is cell-based. As to the method:
as §1, §2, §3, §4

The test system of another series is S. aureus. Briefly: Serial dilution MIC test, S. aureus. The class given is cell-based. The note with it: Staphylococcus aureus, read-out: MINIMUM […]. S. aureus; trypticase soy broth, 37° C, 36 hours; read-out: MINIMUM INHIBITORY CONCN. S. aureus. As to the method:
as §1, §2, §3, §4

For a further series, the system named is C. albicans. The experiment in a line: Serial dilution MIC test, C. albicans. The class given is cell-based. The note with it: Candida albicans; trypticase soy broth, 37° C, 36 hours; read-out: MINIMUM INHIBITORY CONCN. C. albicans. As to the method:
as §1, §2, §3, §4

The test system of the next series is A. niger. The experiment in a line: Serial dilution MIC test, A. niger. The class given is cell-based. The note with it: Aspergillus niger; trypticase soy broth, 37° C, 36 hours; read-out: MINIMUM INHIBITORY CONCN. A. niger. As to the method:
as §1, §2, §3, §4

In series [1] the test system is S. Mutans, Strain OMZ-176E. Briefly: Serial dilution minimum inhibitory concentration (MIC) test, S. mutans. The class given is cell-based. The note with it: Streptococcus mutans, half strength brain-heart infusion broth, 37° C, 36 hours. As to the method:
as §3, with “A quantitative serial dilution test may also be performed by the following procedure. A 20 mg/ml solution of the compound to be tested is prepared in a standard brain-heart infusion broth medium which has been diluted with water to one-half standard strength. Serial” for “Serial”, “(MIC). The minimum inhibitory concentration of a number of a number of compounds of this invention with respect to the microorganism S. Mutans, Strain OMZ-176E were determined by the procedure described above. Chlorhexidine diacetate, a commercially successful antimicrobial, was used as a control.” for “(MIC).”

A short description of series [2]: Staining of extracted human incisors in vitro. The note with it: ten days; for discoloration of teeth: 0.2% and 1% solutions, 10 minutes daily, saliva at 37° C. As to the method: The staining properties of the compound of Example II were compared with those of chlorhexidine by the following procedure. Test solutions were prepared containing 0.2% and 1% of chlorhexidine and 0.2% and 1% of the compound of Example II as the trimethanesulfonate salt. Extracted human incisors, which were used without cleaning or other treatment which would remove the dental pellicle, were suspended from wires. Daily, each tooth was immersed for 10 minutes in one of the test solutions, then suspended in whole stimulated saliva and incubated at 37° C for 24 hours.

For series [3] the following is noted: cited from earlier work; for taste perception of foodstuffs: for several hours; for clinical antiplaque effectiveness: in vivo; for local irritation: oral mucosa and tongue; for staining of teeth, tongue, gums, oral mucosa: prolonged use.

Structures are written as SMILES. In brackets after ≈: the same amount, converted by molar mass. Entries after “also recorded” stand apart in the source; their conditions may differ. Structures can show the parent of a compound that is named as a salt.

With `N=C(NCCN1CCN(CCNC(=N)NC(=O)NC23CC4CC(CC(C4)C2)C3)CC1)NC(=O)NC12CC3CC(CC(C3)C1)C2` [1,4-bis[2-((1-adamantyl)carbamylguanidino)ethyl]piperazine dimethanesulfonic acid salt], the MIC in the series on Ps. aeruginosa is 6.25 µg/mL; with E. coli, 12.5 µg/mL; in the series with S. aureus it was 0.39 µg/mL; in the series with C. albicans it was 0.78 µg/mL; in the series with A. niger, 50 µg/mL.

In the case of `CC(C)(C)CC(C)(C)NC(=O)NC(=N)NCCCN1CCN(CCCNC(=N)NC(=O)NC(C)(C)CC(C)(C)C)CC1` [1,4-bis[3-(1,1,3,3-tetramethylbutylcarbamylguanidino)propyl]piperazine dihydrochloride], the MIC in series [1] was 1.25 µg/mL.

For `CCCCCC(C)NC(=O)NC(=N)NCCCN1CCN(CCCNC(=N)NC(=O)NC(C)CCCCC)CC1` (stereo not shown) [1,4-bis[3-(1-methylhexyl)carbamylguanidino)propyl]piperazine dihydrochloride], the MIC in the series with Ps. aeruginosa is 25 µg/mL; with E. coli, 12.5 µg/mL; in the series with S. aureus it was 1.56 µg/mL; in the series on C. albicans, 6.25 µg/mL; with A. niger, 25 µg/mL.

Regarding `N=C(NCCCN1CCN(CCCNC(=N)NC(=O)NCCc2ccc(Cl)cc2)CC1)NC(=O)NCCc1ccc(Cl)cc1` [1,4-bis[3-(2-(4-chlorophenyl)ethylcarbamylguanidino)propyl]piperazine dihydrochloride], in series [1], the MIC was 1.25 µg/mL.

Turning to `CCCCC(CC)CNC(=O)NC(=N)NCCCN1CCN(CCCNC(=N)NC(=O)NCC(CC)CCCC)CC1` (stereo not shown) [1,4-bis[3-(2-ethylhexylcarbamylguanidino)propyl]piperazine dihydrochloride], the MIC in series [1] was found to be 5 µg/mL.

Take `N=C(NCCCN1CCN(CCCNC(=N)NC(=O)NC23CC4CC(CC(C4)C2)C3)CC1)NC(=O)NC12CC3CC(CC(C3)C1)C2` [1,4-bis[3-((1-adamantyl)carbamylguanidino)propyl]piperazine dimethanesulfonic acid salt]: the MIC in the series with Ps. aeruginosa came to 50 µg/mL; in the series on E. coli, 25 µg/mL; in the series on S. aureus, 6.25 µg/mL; with C. albicans, 12.5 µg/mL; in the series on A. niger it was 12.5 µg/mL.

As for `N=C(NCCCN1CCN(CCCNC(=N)NC(=O)NCC2CCCCCC2)CC1)NC(=O)NCC1CCCCCC1` [1,4-bis[3-(cycloheptylmethylcarbamylguanidino)propyl]piperazine dimethanesulfonic acid salt], the MIC was 12.5 µg/mL with Ps. aeruginosa; 12.5 µg/mL in the series on E. coli; 0.78 µg/mL with S. aureus; 0.78 µg/mL in the series on C. albicans; 50 µg/mL in the series on A. niger.

As to `N=C(NCCCN1CCN(CCCNC(=N)NC(=O)NC2CCCCC2)CC1)NC(=O)NC1CCCCC1` [1,4-bis[3-(cyclohexylcarbamylguanidino)propyl]piperazine dimethanesulfonic acid salt], the MIC in the series on Ps. aeruginosa stood at 100 µg/mL; in the series on E. coli, 100 µg/mL; in the series on S. aureus, 50 µg/mL; in the series with C. albicans, 50 µg/mL; in the series on A. niger it was 100 µg/mL.

Turning to `N=C(NCCCN1CCN(CCCNC(=N)NC(=O)NCC2CCCCC2)CC1)NC(=O)NCC1CCCCC1` [1,4-bis[3-(cyclohexylmethylcarbamylguanidino)propyl]piperazine dimethanesulfonic acid salt], the MIC with Ps. aeruginosa was 100 µg/mL; in the series on E. coli it was 6.25 µg/mL; with S. aureus, 0.78 µg/mL; in the series on C. albicans, 6.25 µg/mL; in the series with A. niger it was 12.5 µg/mL.

Regarding `CCCCCCCCNC(=O)NC(=N)NCCCN1CCN(CCCNC(=N)NC(=O)NCCCCCCCC)CC1` [1,4-bis[3-(n-octylcarbamylguanidino)propyl]piperazine dihydrochloride], the MIC in series [1] was 2.5 µg/mL.

`Cl.Cl.N=C(NCCCN1CCN(CCCNC(=N)NC(=O)NCC2CCCCC2)CC1)NC(=O)NCC1CCCCC1` [1,4-bis[(3-cyclohexylmethylcarbamylguanidino)propyl]piperazine dihydrochloride] returned an MIC in series [1] of 1.25 µg/mL.

Turning to `CN(CCCNC(=N)NC(=O)Nc1ccc(Cl)cc1)CCCNC(=N)NC(=O)Nc1ccc(Cl)cc1` [1,7-bis(4-chlorophenylcarbamylguanidine)-4-methyl-4-azaheptane], the MIC in series [1] came out at 0.625 µg/mL (≈ 1.17 µM).

`CN(CCNC(=N)NC(=O)Nc1ccc(Cl)cc1)CCN(C)CCNC(=N)NC(=O)Nc1ccc(Cl)cc1` [1,8-bis(4-chlorophenylcarbamylguanidino)-3,6-dimethyl-3,6-diazaoctane] registered an MIC in series [1] of 1.25 µg/mL (≈ 2.21 µM).

As for `N=C(NCCCN1CCN(CCCNC(=N)NC(=O)Nc2ccc(Cl)cc2)CC1)NC(=O)Nc1ccc(Cl)cc1` [Example II], the discoloration of teeth result in series [2] was “no signs of discoloration”. Moreover, the MIC in series [1] lay in the range of 0.156 to 0.312 µg/mL (≈ 0.264 to 0.527 µM).

On to `CCCCC(CC)CNC(=N)NC(=N)NCCCCCCNC(=N)NC(=N)NCC(CC)CCCC` (stereo not shown) [alexidine, 1,6-bis-(2-ethylhexylbiguanidino)hexane], for which, in series [3], the “taste perception of foodstuffs” value is on record as “alter taste perception of foodstuffs for several hours”; the clinical antiplaque effectiveness entry is listed as “clinically effective antiplaque agents”; the local irritation entry was “produce local irritation of the oral mucosa and tongue”; the “staining of teeth, tongue, gums, oral mucosa” value is given as “produce stains of various colors on the teeth, tongue, gums, oral mucosa”.

In series [1], `N=C(NCCCCCCNC(=N)NC(=N)Nc1ccc(Cl)cc1)NC(=N)Nc1ccc(Cl)cc1` [chlorhexidine diacetate, reference compound] showed an MIC of 0.156 to 0.312 µg/mL.

`[H]/N=C(\N/C(=N/[H])NCCCCCCNC(=N)NC(=N)Nc1ccc(Cl)cc1)Nc1ccc(Cl)cc1` [chlorhexidine, 1,6-bis-(p-chlorophenylbiguanidino)hexane]: the MIC in the series with Ps. aeruginosa stood at 50 µg/mL (≈ 98.9 µM); in the series with E. coli, 1.56 µg/mL (≈ 3.09 µM); with S. aureus, 0.39 µg/mL (≈ 0.772 µM); in the series on C. albicans, 3.12 µg/mL (≈ 6.17 µM); in the series on A. niger, 12.5 µg/mL (≈ 24.7 µM). In series [3], the “taste perception of foodstuffs” value was “alter taste perception of foodstuffs for several hours”. Also, the clinical antiplaque effectiveness result in series [3] is “clinically effective antiplaque agents”. In addition, the local irritation entry in series [3] was “produce local irritation of the oral mucosa and tongue”. In series [3], the “staining of teeth, tongue, gums, oral mucosa” value is “produce stains of various colors on the teeth, tongue, gums, oral mucosa; also recorded: staining of the teeth, tongue, and gums”. Also, in series [2], the discoloration of teeth result was “greyish-brown discoloration”. Further, in series [2] (0.2% versus 1%), the “dependence of amount of discoloration on concentration” value is reported as “independent of the concentration”.
